Assay results: EP4748844A1, “AZETIDINE COMPOUND AND MEDICAL USE THEREOF” (SHANGHAI INSTITUTE OF MATERIA MEDICA, CHINESE ACADEMY OF …, priority 2023, dated 2025)

How the values were obtained:
[1] = system: DMXAA induced ISG gene expression in mouse RAW-Lucia cells; test: Inhibition of DMXAA-induced ISG gene expression in mouse RAW-Lucia cells (QUANTI-Luc); format: cell-based; settings: STING agonist DMXAA 50 µM, incubated for 24 hours
Description: 10 µL of compound diluted with PBS/physiological saline was added to each well of a 96 well cell culture plate. The STING agonist was DMXAA, which was added to the counted cell suspension at a final concentration of 50 µM. For the control group without compounds, 10 µL of PBS/physiological saline containing 2% DMSO was added. 3 replicate wells were set in each group. RAW-Lucia cells were counted and adjusted to a cell concentration of 4×10^5/mL, and […] of cells were added to each well for incubation. Therefore, the final volume of each test well was 200 µL, the content of DMSO was 0.1%, and the final concentration of the compound tested was 10/3.3/1.1/0.4/0.13/0.04/0.013/0.004 µM. The final concentration of STING agonist DMXAA was 50 µM. The mixture was incubated for 24 hours. In addition, 200 µL of culture medium was added to the blank group. 3 replicate wells were set in each group.
After 24 hours, 20 µL of culture medium was taken from each well and transferred to a new 96 well plate with photopermeable bottom. 50 µL of the luciferase detection reagent QUANTI-Luc™ was added, and the […] was immediately measured (avoid light).
Result analysis: Inhibition rate (%) = (Con(Lum)−Treated(Lum))/Con(Lum) × 100% [formula]
(§1) The IC50 calculation of inhibitors was implemented using the Graphpad Prism 8 software's calculation method log (inhibitor) vs. response - Variable slope (four parameters), with a constrain interval of 0-100.

[2] = system: ISG gene expression induced by MSA-2 in human THP1-Blue-ISG cells; test: Inhibition of MSA-2-induced ISG gene expression in human THP1-Blue-ISG cells (Quanti-Blue, OD650); format: cell-based; settings: STING agonist MSA-2 10 µM, incubated for 24 hours
Description: 10 µL of compound diluted with PBS/physiological saline was added to each well of a 96 well cell culture plate. The STING agonist was MSA-2, which was added to the counted cell suspension at a final concentration of 10 µM. For the control group without compounds, 10 µL of PBS/physiological saline containing 2% DMSO was added. 3 replicate wells were set in each group. THP1-Blue-ISG cells were counted and adjusted to a cell concentration of 4× 10^5/mL, and 190 µL of cells containing STING agonist were added to each well for incubation. Therefore, the final volume of each test well was 200 µL, the content of DMSO was 0.1%, and the final concentration of the compound tested was 10/3.3/1.1/0.4/0.13/0.04/0.013/0.004 µM, incubated for 24 hours. In addition, 190 µL of cells without STING agonist and 10 µL of physiological saline containing 2% DMSO were added to the blank group. 3 replicate wells were set in each group.
After 24 hours, 20 µL of culture medium was taken from each well and transferred to a new 96 well plate. 180 µL of chromogenic solution Quanti-Blue was added. The plate was placed in a 37 °C incubator. After 2 hours, the OD650 values were measured.
Result analysis: Inhibition rate (%) = (Con(OD650)−Treated(OD650))/Con(OD650) × 100% [formula]
as §1

SMILES	IC50 [1] [nM]	IC50 [2] [nM]
CC1(C)C(=O)N(Cc2ccccc2)c2cc(NC(=O)c3c[nH]c4ccccc34)ccc21 [C, reference compound]	188	1540
O=C(Nc1c[nH]c2ccccc12)c1cc2c(s1)SCC(=O)N2Cc1ccccc1 [Example I-6, 1-benzyl-N-(1H-indol-3-yl)-2-oxo-2,3-dihydro-1H-thieno[2,3-b][1,4]thiazin-6-carboxamide]	33	392
CC1(C)C(=O)N(CC2CN(c3ccccc3)C2)c2cc(C(=O)Nc3c[nH]c4ccccc34)ccc21 [Example I-11, N-(1H-indol-3-yl)-3,3-dimethyl-2-oxo-1-((1-phenylazetidin-3-yl)methyl)indolin-6-carboxamide]	23	180
COc1cccc(N2CC(CN3C(=O)C(C)(C)c4ccc(C(=O)Nc5c[nH]c6ccccc56)cc43)C2)c1 [Example I-15, N-(1H-indol-3-yl)-1-((1-3-methoxyphenylazetidin-3-yl)methyl)-3,3-dimethyl-2-oxoindolin-6-carboxamide]	61	132
CC1(C)C(=O)N(CC2CN(c3cc(F)cc(C(F)(F)F)c3)C2)c2cc(C(=O)Nc3c[nH]c4ccccc34)ccc21 [Example I-17]	6.8	32
CC1(C)C(=O)N(CC2CN(c3cc(Cl)cc(C(F)(F)F)c3)C2)c2cc(C(=O)Nc3c[nH]c4ccccc34)ccc21 [Example I-18]	19	56
CC1(C)C(=O)N(CC2CN(c3ccsc3)C2)c2cc(C(=O)Nc3c[nH]c4ccccc34)ccc21 [Example I-20, N-(1H-indol-3-yl)-3,3-dimethyl-2-oxo-1-((1-(thien-3-yl)azetidin-3-yl)methyl)indolin-6-carboxamide]	16	296
O=C(Nc1c[nH]c2ccccc12)c1ccc2c(c1)N(Cc1ccsc1)C(=O)CS2 [Example I-55, N-(1H-indol-3-yl)-3-oxo-4-(thien-3-ylmethyl)-3,4-dihydro-2H-benzothien[b][1,4]thiazin-6-carboxamide]	80	56
O=C(Nc1c[nH]c2ccccc12)c1ccc2c(c1)N(CC1CC1)C(=O)CS2 [Example I-62, 4-(cyclopropylmethyl)-N-(1H-indol-3-yl)-3-oxo-3,4-dihydro-2H-benzo[b][1,4]thiazin-6-carboxamide]	38	121

The remaining lines, values ahead:

IC50 [1] [nM]	IC50 [2] [nM]	SMILES
2.24	235	CC1(C)C(=O)N(Cc2ccccc2)c2cc(C(=O)Nc3c[nH]c4ccccc34)ccc21 [Example I-76, 1-benzyl-N-(1H-indol-3-yl)-3,3-dimethyl-2-oxoindolin-6-carboxamide]
7.4	334	CC1(C)C(=O)N(CC2CC2)c2cc(C(=O)Nc3c[nH]c4ccccc34)ccc21 [Example I-78, 1-cyclopropylmethyl-N-(1H-indol-3-yl)-3,3-dimethyl-2-oxoindolin-6-carboxamide]
24	626	CC1(C)C(=O)N(Cc2ccco2)c2cc(C(=O)Nc3c[nH]c4ccccc34)ccc21 [Example I-80, 1-(furan-2-ylmethyl)-N-(1H-indol-3-yl)-3,3-dimethyl-2-oxoindolin-6-carboxamide]
0.42	237	CC1(C)C(=O)N(CCc2ccccc2)c2cc(C(=O)Nc3c[nH]c4ccccc34)ccc21 [Example I-81, N-(1H-indol-3-yl)-3,3-dimethyl-2-oxo-1-phenethylindolin-6-carboxamide]
